Experimental data: PubChem BioAssay AID248 (DTP/NCI, 2004)
Toxic doses and inconclusive results are not listed. Rule as the data show it: active = T/C of 150% or more; inactive = T/C below 125%.

Tested on: L1210 leukemia ip in BDF1 mice, survival T/C
Test: NCI In Vivo Anticancer Drug Screen. Data for tumor model L1210 Leukemia (intraperitoneal) in B6D2F1 (BDF1) mice
Conditions: endpoint: mean survival time, higher = longer survival
Outline: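 Mice bearing the transplanted tumor received compound or vehicle. Survival of the treated group was divided by that of the vehicle-treated control group to give the ratio.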

[1] = dose: 100.0 mg/kg/injection, schedule: Q01DX001 (ip), vehicle: saline
[2] = dose: 200.0 mg/kg/injection, schedule: Q01DX001 (ip), vehicle: saline
[3] = dose: 400.0 mg/kg/injection, schedule: Q01DX001 (ip), vehicle: saline
[4] = dose: 100.0 mg/kg/injection, schedule: Q04DX003 (ip), vehicle: Klucel (hydroxypropylcellulose) (HPC)
[5] = dose: 200.0 mg/kg/injection, schedule: Q04DX003 (ip), vehicle: Klucel (hydroxypropylcellulose) (HPC)
[6] = dose: 400.0 mg/kg/injection, schedule: Q04DX003 (ip), vehicle: Klucel (hydroxypropylcellulose) (HPC)

Measured: T/C

O=C(NC(c1ccccc1)C(O)c1ccccc1)c1ccc([N+](=O)[O-])cc1 (stereo not drawn)
inactive: dose: 50.0 mg/kg/injection, schedule: Q01DX001 (ip), vehicle: carboxymethylcellulose (CMC) 96 % of control | dose: 100.0 mg/kg/injection, schedule: Q01DX001 (ip), vehicle: carboxymethylcellulose (CMC) 93 % of control | dose: 100.0 mg/kg/injection, schedule: Q04DX003 (ip), vehicle: acetone 109 % of control | dose: 200.0 mg/kg/injection, schedule: Q01DX001 (ip), vehicle: carboxymethylcellulose (CMC) 93 % of control | dose: 200.0 mg/kg/injection, schedule: Q04DX003 (ip), vehicle: acetone 96 % of control | dose: 400.0 mg/kg/injection, schedule: Q01DX001 (ip), vehicle: carboxymethylcellulose (CMC) 87 % of control | dose: 400.0 mg/kg/injection, schedule: Q04DX003 (ip), vehicle: acetone 103 % of control

Cc1ccc([Si](C)Cl)cc1
inactive: dose: 100.0 mg/kg/injection, schedule: Q04DX003 (ip), vehicle: saline with Tween-80 98 % of control | dose: 200.0 mg/kg/injection, schedule: Q04DX003 (ip), vehicle: saline with Tween-80 94 % of control | dose: 400.0 mg/kg/injection, schedule: Q04DX003 (ip), vehicle: saline with Tween-80 90 % of control

NNCCC(=O)O
inactive: [1] 107 % of control | [2] 102 % of control | [3] 115 % of control

CCCC(C)(COC(N)=O)COC(N)=O
inactive: dose: 100.0 mg/kg/injection, schedule: Q01DX009 (ip), vehicle: saline with Tween-80 93 % of control | dose: 200.0 mg/kg/injection, schedule: Q01DX009 (ip), vehicle: saline with Tween-80 90 % of control | dose: 400.0 mg/kg/injection, schedule: Q01DX009 (ip), vehicle: saline with Tween-80 109 % of control

OCCN(CCO)CN(CO)c1nc(N(CO)CN(CCO)CCO)nc(N(CO)CN(CCO)CCO)n1
inactive: dose: 100.0 mg/kg/injection, schedule: Q01DX009 (ip), vehicle: saline 100 % of control | dose: 100.0 mg/kg/injection, schedule: Q04DX003 (ip), vehicle: saline 101 % of control | dose: 200.0 mg/kg/injection, schedule: Q01DX009 (ip), vehicle: saline 109 % of control | dose: 200.0 mg/kg/injection, schedule: Q04DX003 (ip), vehicle: saline 101 % of control | dose: 400.0 mg/kg/injection, schedule: Q01DX009 (ip), vehicle: saline 109 % of control | dose: 400.0 mg/kg/injection, schedule: Q04DX003 (ip), vehicle: saline 91 % of control

O=C(CC(O)(C(F)(F)F)C(F)(F)F)c1ccccc1[N+](=O)[O-]
inactive: dose: 12.5 mg/kg/injection, schedule: Q01DX009 (ip), vehicle: DMSO 94 % of control | dose: 12.5 mg/kg/injection, schedule: Q04DX003 (ip), vehicle: DMSO 97 % of control | dose: 25.0 mg/kg/injection, schedule: Q01DX009 (ip), vehicle: DMSO 86 % of control | dose: 25.0 mg/kg/injection, schedule: Q04DX003 (ip), vehicle: DMSO 95 % of control | dose: 50.0 mg/kg/injection, schedule: Q04DX003 (ip), vehicle: DMSO 110 % of control | dose: 100.0 mg/kg/injection, schedule: Q04DX003 (ip), vehicle: DMSO 102 % of control

Cc1cccc(C)c1NC(=O)Oc1ccccc1C(N)=O
inactive: dose: 100.0 mg/kg/injection, schedule: Q01DX009 (ip), vehicle: Klucel (hydroxypropylcellulose) (HPC) 97 % of control | [4] 98 % of control | dose: 200.0 mg/kg/injection, schedule: Q01DX009 (ip), vehicle: Klucel (hydroxypropylcellulose) (HPC) 100 % of control | [5] 104 % of control | [6] 94 % of control

O=C(/C=C(/NC1CCCCC1)c1ccccc1)c1ccccc1
inactive: [4] 98 % of control | [5] 102 % of control | [6] 100 % of control

OCCCN=Cc1cc(Cl)cc(Cl)c1O
inactive: [1] 98 % of control | [2] 95 % of control | [3] 93 % of control

CCC(CC)(COC(N)=O)COC(N)=O
inactive: dose: 25.0 mg/kg/injection, schedule: Q04DX003 (ip), vehicle: Klucel (hydroxypropylcellulose) (HPC) 98 % of control | dose: 50.0 mg/kg/injection, schedule: Q04DX003 (ip), vehicle: Klucel (hydroxypropylcellulose) (HPC) 93 % of control | [4] 98 % of control | [5] 95 % of control | [6] 93 % of control

C/C(=C\C(C)(C)C(C)(C)C)C(C)(C)C
inactive: dose: 50.0 mg/kg/injection, schedule: Q04DX002 (ip), vehicle: saline with Tween-80 100 % of control | dose: 100.0 mg/kg/injection, schedule: Q04DX002 (ip), vehicle: saline with Tween-80 95 % of control | dose: 200.0 mg/kg/injection, schedule: Q04DX002 (ip), vehicle: saline with Tween-80 92 % of control | dose: 400.0 mg/kg/injection, schedule: Q04DX002 (ip), vehicle: saline with Tween-80 92 % of control
